Bridges are numbered along the chain shown (N, C = ends). Where no end group is shown, it is not given here.
Assays:
tendon and skin wounds = assay: Tissue distribution of fluorescein-labeled peptides after intravenous injection; type: in vivo, mice and rats; settings: FITC conjugates; for fluorescent signal in the wounds: 4 and 8 hours after injection
From the text: Two types of injuries were used with patellar tendons: For phage screening in rats, patellar tendons were exposed through small skin incisions placed on the lateral side of the joint so that the skin wound and tendon wound were not in direct contact with each other. Six longitudinal, full-length incisions were made into the tendon. Full-thickness incision wounds, 1.5 cm in length, were made in skin on the back of the animal. The skin wounds were left uncovered without a dressing. For quantification of phage homing and peptide injections, two size 11 surgical scalpels were placed side-by-side and the central third of the patellar tendon was removed analogous to the graft used in anterior cruciate ligament reconstruction. Achilles tendons were wounded by making four longitudinal, full-length incisions into the tendon Skin wounds were 8 mm circular, full-thickness excision wounds, made to the skin with a biopsy punch. None of the procedures prevented the animals from bearing weight and moving immediately after the operation and without a noticeable […].
Peptides were synthesized with an automated peptide synthesizer by using standard solid-phase fluorenylmethoxycarbonyl chemistry. During synthesis, the peptides were labeled with fluorescein with an amino-hexanoic acid spacer. Each individual fluorescein-conjugated peptide was injected intravenously into the tail vein of rats or mice with wounds. The peptides were allowed to circulate for different periods of time, followed by heart perfusion. Tissues were embedded into OCT (Tissue-Tek) and processed for microscopy.
Frozen tissue sections were fixed in acetone for 10 min and incubated with 0.5% blocking reagent for 1 hour (NEN Life Sciences, Boston, Mass.). Tissue sections were incubated with the primary antibody overnight at 4° C. The following monoclonal (mAbs) and polyclonal antibodies (pAbs) were used: rabbit anti-T7-phage affinity-purified pAb (1:100), rat anti-mouse CD31 mAb (1:200; BD Pharmingen) and rabbit anti-FITC pAb (1:200, Invitrogen, Carlsbad, Calif.). The primary antibodies were detected with labeled secondary antibodies, and each staining experiment included sections stained with species-matched immunoglobulins as negative controls. The sections were washed several times with PBS, mounted in Vectashield Mounting Medium with DAPI (Vector Laboratories) and visualized under an inverted fluorescent or light microscope.

CHO-K cells [1] = assay: FACS analysis of peptide binding to CHO-K cells; type: cell-based, Chinese hamster; settings: for peptide binding to CHO-K cells: 5 μM peptide
Method: (§1) Peptide binding to cells was studied essentially as described above for phage. Peptides were tested at 5 μM concentration, with or without 5×10^9 phage. After incubation on ice for 30 min, the cells were washed and resuspended with PBS containing 2 μg/ml of propidium iodide (PI, Invitrogen, Carlsbad, Calif.) and analyzed using a FACScan flow cytometer (BD, San Jose, Calif.).

CHO-K cells [2] = assay: Internalization of fluorescein-labeled peptides by CHO-K cells; type: cell-based, Chinese hamster; settings: for fluorescence and localization in CHO-K cells by confocal microscopy: FITC-conjugated peptides 10 μM, 4 hours; for accumulation in CHO-K cells: comparison of CHO-K and pgsA-745 cells
Method: (§2) To study peptide internalization, CHO-K cells or HUVEC seeded on plastic coverslips were incubated with 10 μM fluorescein-conjugated peptides for 30 min to 72 hours, washed 3 times with PBS, and fixed with 4% paraformaldehyde for 20 min at room temperature. After several washes with PBS, the nuclei were visualized by staining with DAPI, and the slides were mounted with ProLong Gold antifade reagent (Invitrogen, Carlsbad, Calif.). The images were acquired using Olympus IX81 inverted and Olympus Fluoview FV1000 confocal microscopes. Z-stack images were taken by confocal microscope every 1 μm through the cells.

[3] = system: human umbilical vein endothelial cells (HUVECs); assay: Internalization of peptides by HUVECs; type: cell-based; settings: 10 μM, 24 h
Method: as §2

pgsA-745 cells [4] = assay: Internalization of peptides by pgsA-745 cells; type: cell-based, Chinese hamster; settings: comparison of CHO-K and pgsA-745 cells
[5] = system: MDA-MB-235 tumor xenografts; assay: Homing of fluorescein-conjugated peptides to tumor xenografts; type: in vivo, mice; settings: intravenous, tumor collected 4 hours later; for homing to tumors and extravasation: fluorescence
Method: Fluorescein-conjugated peptides CAR, control peptide CAR2, CRK and control peptide KAREC were intravenously injected into mice with MDA-MB-235 tumor xenografts. Tumor tissue was collected 4 hours later and examined for the presence of the peptides. Blood vessels were stained with CD-31 antibody and the nuclei were stained with DAPI.
Fluorescein-conjugated peptides CAR, control peptide CAR2, CRK and control peptide KAREC were intravenously injected into mice with MDA-MB-235 tumor xenografts. Tumor tissue was collected 4 hours later and examined for the presence of the peptides. Adjacent tissue section were stained for blood vessels (CD-31), while the FITC-labeled peptide was first detected with rabbit anti-FITC followed by biotin-conjugated anti-rabbit IgG to confirm the source of fluorescent signal to be from the FITC-labeled peptide. The sections were then stained with hematoxylin-eosin.

mitochondrial membranes = settings: concentration of 10 μM; cited from earlier work
pgsA-745 cells [6] = assay: FACS analysis of peptide binding to pgsA-745 cells; type: cell-based, Chinese hamster; settings: 5 μM peptide
Method: as §1

| Substance | fluorescent signal in non-tumor tissues (liver, kidney, lung and spleen) (tendon and skin wounds) | fluorescent signal in the wounds (tendon and skin wounds) | peptide binding to CHO-K cells (CHO-K cells [1]) | fluorescence and localization in CHO-K cells by confocal microscopy (CHO-K cells [2]) | accumulation in CHO-K cells (CHO-K cells [2]) | binding and internalization by HUVECs [3] | accumulation in pgsA-745 cells (pgsA-745 cells [4]) | homing detected with anti-FITC antibody [5] | homing to tumors and extravasation [5] | binding and internalization by CHO-K cells (CHO-K cells [2]; fluorescein-labeled peptide) | also measured |
| --- | --- | --- | --- | --- | --- | --- | --- | --- | --- | --- | --- |
| CARSKNKDC (disulfide 1-9 (inferred); not fully specified (N-terminus); also: FITC conjugate, site not given here) [tested as fluorescein (FITC) conjugate] | did not differ from that of the fluorescein-labeled CAR2 or KAREC peptides | strong fluorescent signal in the wounds | strong binding | strong green fluorescence that mostly overlaps with nuclear DAPI staining | only binds to and is internalized by the CHO-K cells | binds to cells and appears to enter the cells co-localizing with the nuclei | only binds to and is internalized by the CHO-K cells | home to hypervascular regions surrounding the tumors and to tumor tissue | home to tumors and extravasate to tumor tissue |  | inhibition of labeled CAR peptide binding to CHO-K cells by competitor (CHO-K cells [1]; excess unlabeled peptide or phage): inhibited the binding in a dose-dependent manner; time to accumulation inside the cells, overlapping with the nucleus (CHO-K cells [2]; fluorescein-labeled peptide): ≤ 30 min |
| CARSTKATC [CAR2] |  | no accumulated fluorescence | bound only weakly | no detectable fluorescence |  |  |  |  |  | no binding or internalization |  |
| CGKRK [reference compound] |  |  |  | overlap with the nuclei and the cytosol | accumulated in the cytosol and nuclei |  | accumulated in the cytosol and nuclei |  |  |  | effect of unlabeled competitor on uptake of fluorescein-labeled CAR peptide by CHO-K cells (CHO-K cells [2]; 10-molar excess of unlabeled peptide): did not detectably affect the uptake |
| CRKDKC (not fully specified (N-terminus); cysteine pairing not given here; also: FITC conjugate, site not given here) [tested as fluorescein (FITC) conjugate] | did not differ from that of the fluorescein-labeled CAR2 or KAREC peptides | strong fluorescent signal in the wounds |  | no detectable fluorescence |  | binds to the cells, but does not internalize |  | home to hypervascular regions surrounding the tumors and to tumor tissue | home to tumors and extravasate to tumor tissue | bound to the cells, but was not detectably internalized |  |
| D(KLAKLAK)2 (KLAKLAKKLAKLAKKLAKKLAKAAKKAA) [antimicrobial peptide which promotes disruption of mitochondrial membranes] |  |  |  |  |  |  |  |  |  |  | mitochondrial swelling (mitochondrial membranes): marked mitochondrial swelling |
| KAREC [unrelated 5 amino-acid control peptide, reference compound] |  | no detectable signal in the wounds | no binding | no detectable fluorescence |  |  |  |  |  |  | peptide binding to pgsA-745 cells (pgsA-745 cells [6]): no binding |
